From patent US20100107281A1, “PESTICIDAL COMBINATIONS” (priority 2006, published 2010)

System: Soybean Cyst Nematode (Heterodera Glycines)
Experiment: Soybean cyst nematode reproduction on seed-treated soybean plants in cone-tainers, eggs counted 30 days after inoculation
Assay type: in vivo
Conditions: soybean seed treatment
Source text: The expected percentage of disease control to be expected, E, for a given combination of two active ingredients can be calculated as follows (see COLBY, S. R. “Calculating synergistic and antagonistic response of herbicide combinations”. Weeds 15, pages 20-22; 1967):
wherein: X=% disease control in the case of treatment with active ingredient (A) at a defined application rate, in comparison with untreated control (=0%). Y=% disease control in the case of treatment with active ingredient (B) at a defined application rate, in comparison with untreated control. E=expected percentage of disease control (% disease control in comparison with untreated control) after treatment with active ingredient (A) and active ingredient (B) at a defined application rate. If the observed percentage of disease control O is greater than the expected value E, there is a synergistic effect.
Soybeans were planted into “cone-tainers” (3.8 cm cell diameter; 14 cm cell depth; the Ray Leach “Cone-tainer” Single Cell System consists of individual cells that can be arranged within a tray and is available from Stuewe and Sons Incorporated) in 70% sand 30% clay loam soil mix (one soybean seed per cone-tainer). The cone-tainers contained a 10 cm by 10 cm piece of cheesecloth at the bottom to prevent the soil coming out of the bottom. The soil mix was autoclaved for 60 minutes prior to use. Extra cone-tainers were planted which allowed similar size soybean plants to be selected and placed into a randomized complete block design with 3 replications of each treatment. The cone-tainers were placed into a growth chamber set at 27° C. and 14 hour day light periods. The air temperature in the growth chamber was monitored in 15 minutes intervals using a watchdog data collector. […] The water source was supplemented with fertilizer to promote plant growth.
Soil was collected from a field with “HG type” 2.5.7 (The “HG type” test is a greenhouse test that provides information on how well a soybean cyst nematode “Heterodera glycines, HG” population can reproduce in a particular soil). The soil was added to water and poured over a 25 mesh sieve over a 60 mesh sieve to collect the cysts. The soil solution collected on the 60 mesh sieve was then placed onto a 120 mesh sieve over 500 mesh sieve. […]
The soybean plants were inoculated with 6,000 soybean cyst nematode eggs 7 days after the planting of the soybeans into the cone-tainers. […] The air temperature in the growth chamber was monitored in 15 minutes intervals using a watchdog data collector. […]
The plants were removed from the growth chamber 30 days after inoculation to assess the nematode reproduction factor. […] The total number of soybean cyst nematode eggs present in each sample was determined. […]

Row | Compound | Observed Rf (nematode reproduction factor) (2.5 g acibenzolar-S-methyl/100 kg seed, 30 days after inoculation) | Observed Rf (nematode reproduction factor) (5.0 g acibenzolar-S-methyl/100 kg seed, 30 days after inoculation) | Observed Rf (nematode reproduction factor) (10.0 g acibenzolar-S-methyl/100 kg seed, 30 days after inoculation) | Observed Rf (nematode reproduction factor) (0.15 mg abamectin/seed, 30 days after inoculation with 6,000 eggs)
1 | CSC(=O)c1cccc2nnsc12 [(B-1), acibenzolar-S-methyl] | 4.1 | 2.7 | 3.9 | 
2 | abamectin [(A-a)] |  |  |  | 2.5
